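Five concentrations, 48 hours, 96-well plates. At the GI50, growth is halved.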 Activity calls are given as the source filed them. No stated cut-off is given here; in the data, active = GI50 up to about 1.1 µM and inactive = higher.

Among the test systems are SN12C; SK-MEL-5; SK-MEL-2; NCI-H522; HCT-116; A498; COLO 205; Hs-578T; T47D; HL-60; UACC-62; HOP-62; OVCAR-5; RPMI-8226; NCI-H226; A549; Malme-3M; HOP-92; OVCAR-3.
Experiment in all cases: inhibition of tumour cell growth, NCI panel, 48 h

On to `CC[C@H](C)[C@H]1NC(=O)[C@@H](NC(=O)[C@@H](CC(C)C)N(C)CC2CCCN2C(=O)C(C)=O)[C@@H](C)OC(=O)[C@H](Cc2ccc(OC)cc2)N(C)C(=O)C2CCCN2C(=O)[C@H](CC(C)C)NC(=O)[C@@H](C)C(=O)[C@H](C(C)C)OC(=O)C[C@@H]1O` (stereo partly specified), for which the GI50 with SN12C is 0.00545 µM (active); in the assay with SK-MEL-5, 0.00311 µM (active); in the assay with SK-MEL-2, 0.00351 µM (active); in the assay with NCI-H522, 0.00564 µM (active); in the assay with HCT-116, 0.00308 µM (active); in the assay with A498, 0.00471 µM (active). For the same compound, the GI50 was 0.00293 µM (active) in the assay on COLO 205; 0.00405 µM (active) with Hs-578T; 0.00344 µM (active) with T47D; 0.00476 µM (active) with HL-60; 0.00294 µM (active) with UACC-62; 0.00361 µM (active) with HOP-62. Further, the GI50 in the assay on OVCAR-5 is 0.00393 µM (active); with RPMI-8226, 0.00313 µM (active); in the assay with NCI-H226, 0.0152 µM (active); in the assay on A549, 0.00356 µM (active); with Malme-3M, 0.00681 µM (active); in the assay with HOP-92, 0.00403 µM (active). In the assay with OVCAR-3, the GI50 is 0.00324 µM (active).
Take `O=C(/C=C1\C[C@H]2C=Nc3ccccc3C(=O)N2C1)NCCCNC(=O)/C=C1\C[C@H]2C=Nc3ccccc3C(=O)N2C1`: the GI50 in the assay with SN12C is 18 µM (inactive); in the assay on SK-MEL-5, 16.1 µM (inactive); in the assay on SK-MEL-2 it was 19.3 µM (inactive); in the assay on NCI-H522, 1.96 µM (inactive); in the assay on HCT-116 it was 16 µM (inactive); with A498, 17.5 µM (inactive). For the same compound, the GI50 in the assay with COLO 205 was 12.9 µM (inactive); in the assay on Hs-578T, 32 µM (inactive); in the assay with T47D, 16 µM (inactive); in the assay with HL-60, 8.73 µM (inactive); in the assay with UACC-62 it was 15.7 µM (inactive); in the assay on HOP-62, 16.6 µM (inactive). Further, the GI50 in the assay on OVCAR-5 is 21.2 µM (inactive); with RPMI-8226, 10.1 µM (inactive); in the assay on NCI-H226 it was 20.7 µM (inactive); with A549, 21.1 µM (inactive); with Malme-3M, 15.9 µM (inactive); in the assay on HOP-92, 20 µM (inactive). Moreover, the GI50 with OVCAR-3 was 12 µM (inactive).
Turning to `CC(C)C1CC(CO)(CNc2nc(N)nc(Cl)c2/C=N\O)C1` (stereo unspecified), the GI50 in the assay with SN12C is 23.2 µM (inactive); with SK-MEL-5 it was 0.71 µM (active); in the assay with SK-MEL-2, 12 µM (inactive); with NCI-H522, 4.53 µM (inactive); in the assay with HCT-116 it was 12.6 µM (inactive); in the assay on A498, 12.3 µM (inactive). Further, the GI50 in the assay on COLO 205 was 2.37 µM (inactive); in the assay with Hs-578T, 15.9 µM (inactive); in the assay on T47D, 1.25 µM (inactive); in the assay on HL-60 it was 4.6 µM (inactive); in the assay on UACC-62 it was 11.6 µM (inactive); with HOP-62 it was 21.9 µM (inactive). Besides, the GI50 was 20.1 µM (inactive) in the assay with OVCAR-5; 2.64 µM (inactive) in the assay on RPMI-8226; 14.8 µM (inactive) in the assay on NCI-H226; 1.76 µM (inactive) in the assay with A549; 3.22 µM (inactive) with Malme-3M; 12.5 µM (inactive) in the assay with HOP-92. In addition, the GI50 in the assay on OVCAR-3 was 13.7 µM (inactive).
`CC(C)(C)OC(=O)/C=C/[C@@H](CCC(=O)/C=C/[C@H](/C=C\CCCC(=O)O)NC1(c2ccccc2)c2ccccc2-c2ccccc21)O[Si](C)(C)C(C)(C)C`: the GI50 is 15.8 µM (inactive) in the assay on SN12C; 16.9 µM (inactive) in the assay with SK-MEL-5; 15.4 µM (inactive) with SK-MEL-2; 18.5 µM (inactive) in the assay with NCI-H522; 13.6 µM (inactive) with HCT-116; 19.2 µM (inactive) in the assay with A498. The GI50 with COLO 205 was 21.5 µM (inactive); in the assay with Hs-578T, 38.9 µM (inactive); in the assay on T47D, 12.6 µM (inactive); in the assay on HL-60, 24.8 µM (inactive); in the assay with UACC-62 it was 13.9 µM (inactive); in the assay on HOP-62, 17.5 µM (inactive). Further, the GI50 in the assay on OVCAR-5 is 20.5 µM (inactive); with RPMI-8226 it was 10.5 µM (inactive); in the assay with NCI-H226, 18.3 µM (inactive); in the assay with A549 it was 14.3 µM (inactive); with HOP-92, 4.8 µM (inactive); in the assay with OVCAR-3, 16.7 µM (inactive).
Consider `O=C(/C=C\c1ccsc1)c1ccccc1`, for which the GI50 in the assay on SN12C is 12 µM (inactive); in the assay with SK-MEL-5, 13.8 µM (inactive); in the assay on SK-MEL-2 it was 16.7 µM (inactive); in the assay with NCI-H522 it was 1.68 µM (inactive); in the assay on HCT-116, 3.85 µM (inactive); with A498, 5.31 µM (inactive). For the same compound, the GI50 is 16.2 µM (inactive) in the assay with COLO 205; 5.35 µM (inactive) in the assay on Hs-578T; 5.31 µM (inactive) in the assay on T47D; 0.182 µM (active) in the assay with HL-60; 12.2 µM (inactive) with UACC-62; 16.1 µM (inactive) in the assay with HOP-62. The GI50 in the assay with OVCAR-5 was 16.1 µM (inactive); with RPMI-8226 it was 2.22 µM (inactive); in the assay with NCI-H226, 16.5 µM (inactive); in the assay with HOP-92 it was 17.6 µM (inactive); in the assay with OVCAR-3, 14.7 µM (inactive).
As for `CCOC(=O)/C(C#N)=C/c1ccnc2ccccc12`, the GI50 is 76.4 µM (inactive) with SN12C; 31.7 µM (inactive) in the assay with SK-MEL-5; > 100 µM (inactive) in the assay on SK-MEL-2; > 100 µM (inactive) in the assay with NCI-H522; 2.19 µM (inactive) in the assay with HCT-116; > 100 µM (inactive) in the assay with A498. For the same compound, the GI50 in the assay with COLO 205, with Hs-578T, in the assay on T47D, in the assay with UACC-62, in the assay on HOP-62 and with OVCAR-5 was > 100 µM (inactive) each time. In addition, the GI50 in the assay on RPMI-8226 was 25.4 µM (inactive); in the assay with NCI-H226, > 100 µM (inactive); in the assay with A549, > 100 µM (inactive); with Malme-3M, 37.1 µM (inactive); with HOP-92, 40.2 µM (inactive); in the assay with OVCAR-3, 53.7 µM (inactive).
Turning to `CCOC(=O)c1c(N2CCOCC2)[nH]c(=O)c(C(c2ccco2)c2c(O)c(C(=O)OCC)c(N3CCOCC3)[nH]c2=O)c1O`, the GI50 in the assay on SN12C, in the assay on SK-MEL-5, with SK-MEL-2, in the assay with NCI-H522, in the assay on HCT-116 and with A498 was > 100 µM (inactive) in each case. The GI50 with COLO 205, in the assay on Hs-578T, in the assay with T47D, in the assay with UACC-62, with HOP-62 and in the assay on OVCAR-5 was > 100 µM (inactive) throughout. The GI50 in the assay on RPMI-8226 was > 100 µM (inactive); in the assay with NCI-H226, > 100 µM (inactive); with A549, > 100 µM (inactive); with Malme-3M, > 100 µM (inactive); in the assay on HOP-92 it was 80.9 µM (inactive); in the assay with OVCAR-3 it was > 100 µM (inactive).
In the case of `COc1cc(C2=NNC(=O)c3ccccc3N2c2nc(-c3cccs3)nc3ccc(Br)cc23)cc(OC)c1OC`, the GI50 in the assay with SN12C is 18.9 µM (inactive); in the assay on SK-MEL-5, 10.5 µM (inactive); in the assay on SK-MEL-2, 31.2 µM (inactive); in the assay on NCI-H522, 9.06 µM (inactive); in the assay with HCT-116, 12.4 µM (inactive); in the assay on A498 it was 34.8 µM (inactive). For the same compound, the GI50 in the assay on COLO 205 is 5.24 µM (inactive); in the assay on Hs-578T, 5.48 µM (inactive); in the assay with T47D, 15.1 µM (inactive); with UACC-62, 12.4 µM (inactive); with HOP-62 it was 15.6 µM (inactive); in the assay on OVCAR-5 it was 40.1 µM (inactive). In addition, the GI50 was 2.42 µM (inactive) in the assay with RPMI-8226; 36.1 µM (inactive) in the assay with NCI-H226; 18.6 µM (inactive) with A549; 17.3 µM (inactive) in the assay with Malme-3M; 4.83 µM (inactive) in the assay with HOP-92; 5.4 µM (inactive) with OVCAR-3.
`CO[C@@H]1O[C@H](C(=O)c2ccccc2)[C@H]2OC(C)(C)O[C@@H]12`: the GI50 with SN12C is 89.7 µM (inactive); in the assay on SK-MEL-5, > 100 µM (inactive); in the assay with SK-MEL-2, > 100 µM (inactive); in the assay with NCI-H522, > 100 µM (inactive); in the assay with HCT-116 it was 75.3 µM (inactive); with A498 it was > 100 µM (inactive). Also, the GI50 in the assay with COLO 205 is > 100 µM (inactive); with Hs-578T, 83 µM (inactive); in the assay on T47D, > 100 µM (inactive); in the assay on HL-60, 21.1 µM (inactive); in the assay on UACC-62, > 100 µM (inactive); with HOP-62, > 100 µM (inactive). The GI50 in the assay with OVCAR-5, in the assay with RPMI-8226, in the assay on NCI-H226, in the assay with HOP-92 and in the assay with OVCAR-3 was > 100 µM (inactive) each time.
On to `O=C(Nc1ccc(Cl)cc1)NS(=O)(=O)c1c(-c2ccccc2)oc2ccccc2c1=O`, for which the GI50 was > 100 µM (inactive) with SN12C; > 100 µM (inactive) in the assay on SK-MEL-5; 45.2 µM (inactive) in the assay on SK-MEL-2; 1.97 µM (inactive) with NCI-H522; 92.7 µM (inactive) in the assay with HCT-116; 33 µM (inactive) in the assay with A498. Moreover, the GI50 in the assay on COLO 205 was 56.4 µM (inactive); with Hs-578T, > 100 µM (inactive); in the assay with T47D, 48 µM (inactive); in the assay on HL-60, 61.7 µM (inactive); with UACC-62, 1.97 µM (inactive); with HOP-62 it was 71.6 µM (inactive). The GI50 is > 100 µM (inactive) with OVCAR-5; 58.9 µM (inactive) in the assay on RPMI-8226; > 100 µM (inactive) in the assay with NCI-H226; 39 µM (inactive) in the assay on A549; > 100 µM (inactive) in the assay on Malme-3M; 89.3 µM (inactive) in the assay on HOP-92.

The values above are taken from ChEMBL document CHEMBL1201862, “PubChem BioAssay data set” (2004).
